Measured values: patent US9388162B2, “Substituted morphinans and the use thereof” (Purdue Pharma L.P., priority 2012, dated 2016)

How the values were obtained:
[1] = target: recombinant human kappa opioid receptor (κ) (Homo sapiens (Human), UniProt P41145); experiment: κ-opioid receptor radioligand dose displacement binding assay ([3H]-U69,593); settings: mean ± SEM, read-out: Binding Affinity Opioid Receptor Ki (nM) [mean ± SEM] κ
Procedure: (§1) Membranes from HEK-293 cells, CHO or U-2 OS cells expressing the recombinant human kappa opioid receptor (κ) were prepared by lysing cells in ice cold hypotonic buffer (2.5 mM MgCl2, 50 mM HEPES, pH 7.4) (10 mL/10 cm dish) followed by homogenization with a tissue grinder/Teflon pestle. Membranes were collected by centrifugation at 30,000×g for 15 min at 4° C. and pellets were resuspended in hypotonic buffer to a final concentration of 1-3 mg/mL. Protein concentrations were determined using the BioRad protein assay reagent with bovine serum albumen as standard. Aliquots of κ receptor membranes were stored at −80° C.
Radioligand dose displacement assays used 0.4 nM [^3H]-U69,593 (GE Healthcare, Piscataway, N.J.; 40 Ci/mmole) with 15 μg membrane protein (recombinant κ opioid receptor expressed in HEK 293 cells; in-house prep) in a final volume of 200 μl binding buffer (5% DMSO, 50 mM Trizma base, pH 7.4). Non-specific binding was determined in the presence of 10 μM unlabeled naloxone or U69,593. All reactions were performed in 96-well polypropylene plates for 1 hour at a temperature of about 25° C. Binding reactions were terminated by rapid filtration onto 96-well Unifilter GF/C filter plates (Perkin Elmer, Shelton, Conn.) presoaked in 0.5% polyethylenimine (Sigma). Harvesting was performed using a 96-well tissue harvester (Perkin Elmer, Shelton, Conn.) followed by five filtration washes with 200 μl ice-cold binding buffer. Filter plates were subsequently dried at 50° C. for 1-2 hours. Fifty μl/well scintillation cocktail (Perkin Elmer, Shelton, Conn.) was added and plates were counted in a Packard Top-Count for 1 min/well.
(§2) The following tables provide results on the efficacy of binding and activity response of exemplified Compounds of the Invention at the μ- and κ-opioid receptors. In TABLE 3, binding affinity of certain Compounds of the Invention to the μ- and κ-opioid receptors was determined as described above. In TABLE 4, activity response of certain Compounds of the Invention to the μ- and κ-opioid receptors was determined as described above for functional assays using HEK-293 cells. In TABLE 5, activity response of certain Compounds of the Invention to the μ- and κ-opioid receptors was determined as described above using U-2 OS cells.

[2] = target: T1, μ-opioid receptors (Homo sapiens (Human), UniProt P35372); experiment: μ-opioid receptor radioligand dose-displacement binding assay ([3H]-diprenorphine); settings: mean ± SEM, read-out: Binding Affinity Opioid Receptor Ki (nM) [mean ± SEM] μ
Procedure: Radioligand dose-displacement binding assays for μ-opioid receptors used 0.3 nM [^3H]-diprenorphine (Perkin Elmer, Shelton, Conn.), with […] membrane protein/well in a final volume of 500 μl binding buffer (10 mM MgCl2, 1 mM EDTA, 5% DMSO, 50 mM HEPES, pH 7.4). Reactions were carried out in the absence or presence of increasing concentrations of unlabeled naloxone. All reactions were conducted in 96-deep well polypropylene plates for 2 hours at room temperature. Binding reactions were terminated by rapid filtration onto 96-well Unifilter GF/C filter plates (Perkin Elmer, Shelton, Conn.), presoaked in 0.5% polyethylenimine using a 96-well tissue harvester (Perkin Elmer, Shelton, Conn.) followed by performing three filtration washes with 500 μl of ice-cold binding buffer. Filter plates were subsequently dried at 50° C. for 2-3 hours. BetaScint scintillation cocktail (Perkin Elmer, Shelton, Conn.) was added (50 μl/well), and plates were counted using a Packard Top-Count for 1 min/well. The data were analyzed using the one-site competition curve fitting functions in GraphPad PRISM™ v. 3.0 or higher (San Diego, Calif.), or an in-house function for one-site competition curve-fitting.
as §2

[3] = target: T2, κ opioid receptor (Homo sapiens (Human), UniProt P41145); experiment: κ-opioid receptor [35S]GTPγS functional assay, U-2 OS cells; type: biochemical; settings: κ GTP; for EC50: read-out: Activity Response κ EC50 (nM) [mean ± SEM]; for Emax: relative to U69,593, read-out: Activity Response κ Emax (%)
[4] = target: T1, μ-opioid receptors; experiment: μ-opioid receptor [35S]GTPγS functional assay, HEK-293 cells; type: biochemical; settings: μ GTP; for EC50: read-out: Activity Response μ EC50 (nM) [mean ± SEM]; for Emax: relative to DAMGO, read-out: Activity Response μ Emax (%)
Procedure: [^35S]GTPγS functional assays were conducted using freshly thawed μ-receptor membranes prepared from a cell line expressing recombinant μ opioid receptor in a HEK-293, CHO or U-2 OS cell background or purchased from a commercial source (Perkin Elmer, Shelton, Conn.; or DiscovRx, Fremont, Calif.). Assay reactions were prepared by sequentially adding the following reagents to binding buffer (100 mM NaCl, 10 mM MgCl2, 20 mM HEPES, pH 7.4) on ice (final concentrations indicated): membrane protein (0.026 mg/mL), saponin ([…]), GDP ([…]) and [^35S]GTPγS (0.20 nM; Perkin Elmer, Shelton, Conn.). The prepared membrane solution (190 μl/well) was transferred to 96-shallow well polypropylene plates containing 10 μl of 20× concentrated stock solutions of the agonist [D-Ala^2, N-methyl-Phe^4 Gly-ol^5]-enkephalin (DAMGO) prepared in dimethyl sulfoxide (DMSO). Plates were incubated for 30 min at about 25° C. with shaking. Reactions were terminated by rapid filtration onto 96-well Unifilter GF/B filter plates (Perkin Elmer, Shelton, Conn.) using a 96-well tissue harvester (Perkin Elmer, Shelton, Conn.) followed by three filtration washes with 200 μl of ice-cold wash buffer (10 mM NaH2PO4, 10 mM Na2HPO4, pH 7.4). Filter plates were subsequently dried at 50° C. for 2-3 hours. BetaScint scintillation cocktail (Perkin Elmer, Shelton, Conn.) was added (50 μl/well) and plates were counted using a Packard Top-Count for 1 min/well. Data were analyzed using the sigmoidal dose-response curve fitting functions in GraphPad PRISM v. 3.0, or an in-house function for non-linear, sigmoidal dose-response curve-fitting.
μ GTP EC50 is the concentration of a compound providing 50% of the maximal response for the compound at a μ-opioid receptor.
μ GTP Emax (%) is the maximal effect elicited by a compound relative to the effect elicited by DAMGO, a standard μ agonist. Generally, the μ GTP Emax (%) value measures the efficacy of a compound to treat or prevent pain or other Conditions.
as §2

[5] = target: T2, κ opioid receptor; experiment: κ-opioid receptor [35S]GTPγS functional assay, HEK-293 cells; type: biochemical; settings: κ GTP; for EC50: read-out: Activity Response κ EC50 (nM) [mean ± SEM]; for Emax: relative to U69,593, read-out: Activity Response κ Emax (%)
Procedure: as §1
Functional [^35S]GTPγS binding assays were conducted as follows. κ opioid receptor membrane solution was prepared by sequentially adding final concentrations of 0.026 μg/μl κ membrane protein (in-house), 10 μg/mL saponin, 3 μM GDP and 0.20 nM [^35S]GTPγS to binding buffer (100 mM NaCl, 10 mM MgCl2, 20 mM HEPES, pH 7.4) on ice. The prepared membrane solution (190 μl/well) was transferred to 96-shallow well polypropylene plates containing 10 μl of 20× concentrated stock solutions of agonist prepared in DMSO. Plates were incubated for 30 min at a temperature of about 25° C. with shaking. Reactions were terminated by rapid filtration onto 96-well Unifilter GF/B filter plates (Perkin Elmer, Shelton, Conn.) using a 96-well tissue harvester (Packard) and followed by three filtration washes with 200 μl ice-cold binding buffer (10 mM NaH2PO4, 10 mM Na2HPO4, pH 7.4). Filter plates were subsequently dried at 50° C. for 2-3 hours. Fifty μl/well scintillation cocktail (Perkin Elmer, Shelton, Conn.) was added and plates were counted in a Packard Top-Count for 1 min/well.
κ GTP EC50 is the concentration of a compound providing 50% of the maximal response for the compound at a κ receptor.
κ GTP Emax (%) is the maximal effect elicited by a compound relative to the effect elicited by U69,593.
as §2, with “In” for “The following tables provide results on the efficacy of binding and activity response of exemplified Compounds of the Invention at the μ- and κ-opioid receptors. In”

[6] = target: T1, μ-opioid receptors; experiment: μ-opioid receptor [35S]GTPγS functional assay, U-2 OS cells; type: biochemical; settings: μ GTP; for EC50: read-out: Activity Response μ EC50 (nM) [mean ± SEM]; for Emax: relative to DAMGO, read-out: Activity Response μ Emax (%)

Row | SMILES | Ki [1] [nM] | Ki [2] [nM] | EC50 [3] [nM] | Emax [3] [%] | EC50 [4] [nM] | Emax [4] [%] | EC50 [5] [nM] | Emax [5] [%] | EC50 [6] [nM] | Emax [6] [%]
1 | COCC[C@H]1C[C@@]2(O)[C@H]3Cc4ccc(OC)cc4[C@@]2(CCN3CC2CC2)CC1=O [Compound 49, (4bR,7S,8aS,9R)-11-(cyclopropylmethyl)-8a-hydroxy-3-methoxy-7-(2-methoxyethyl)-8,8a,9,10-tetrahydro-5H-9,4b-(epiminoethano)phenanthren-6(7H)-one] | 324 ± 48 | 1960 ± 638 | 1280 ± 160 | 108 ± 5.57 |  |  |  |  |  | 
2 | O=C1C[C@]23CCN(CC4CC4)[C@H](Cc4ccc(O)cc42)[C@]3(O)C[C@@H]1CC(=O)N1CCC[C@H]1C(=O)O [Compound 17, (S)-1-(2-((4bR,7R,8aS,9R)-11-(cyclopropylmethyl)-3,8a-dihydroxy-6-oxo-6,7,8,8a,9,10-hexahydro-5H-9,4b-(epiminoethano)phenanthren-7-yl)acetyl)pyrrolidine-2-carboxylic acid] | 128 ± 18.1 |  |  |  | > 200000 | 0 | > 200000 |  |  | 
3 | C[C@H](NC(=O)C[C@H]1C[C@@]2(O)[C@H]3Cc4ccc(O)cc4[C@@]2(CCN3CC2CC2)CC1=O)C(=O)O [Compound 15, (S)-2-(2-((4bR,7R,8aS,9R)-11-(cyclopropylmethyl)-3,8a-dihydroxy-6-oxo-6,7,8,8a,9,10-hexahydro-5H-9,4b-(epiminoethano)phenanthren-7-yl)acetamido)propanoic acid] | 191 ± 45.8 |  |  |  | 43.8 ± 14.7 | 36.2 ± 3.75 | 221 ± 59.4 | 36 ± 2 |  | 
4 | CC(C)[C@@H]1C[C@H]2[C@H]3Cc4ccc(O)cc4[C@@]2(CCN3CC2CC2)CC1=O [Compound 73, (4bS,7S,8aR,9R)-11-(cyclopropylmethyl)-3-hydroxy-7-isopropyl-8,8a,9,10-tetrahydro-5H-9,4b-(epiminoethano)phenanthren-6(7H)-one] | 0.32 ± 0.11 | 1.98 ± 0.44 | 1.92 ± 0.28 | 101 ± 3.38 | 2.85 ± 0.6 | 53.2 ± 5.71 | 6.07 ± 1.92 | 61 ± 8.62 | 0.84 ± 0.13 | 28.3 ± 4.06
5 | COc1ccc2c(c1)[C@]13CCN(CC4CC4)[C@H](C2)[C@]1(O)C[C@H](CCO)C(=O)C3 [Compound 46, (4bR,7S,8aS,9R)-11-(cyclopropylmethyl)-8a-hydroxy-7-(2-hydroxyethyl)-3-methoxy-8,8a,9,10-tetrahydro-5H-9,4b-(epiminoethano)phenanthren-6(7H)-one] | 394 ± 85.2 | 591 ± 80.3 | 1020 ± 110 | 109 ± 4.84 |  |  |  |  | 409 ± 88.5 | 68.7 ± 4.1
6 | COc1ccc2c(c1)[C@]13CCN(CC4CC4)[C@H](C2)[C@]1(O)C[C@H](CC(=O)O)C(=O)C3 [Compound 8, 2-((4bR,7R,8aS,9R)-11-(cyclopropylmethyl)-8a-hydroxy-3-methoxy-6-oxo-6,7,8,8a,9,10-hexahydro-5H-9,4b-(epiminoethano)phenanthren-7-yl)acetic acid] | 261 ± 97.3 |  |  |  | 703 ± 72 | 59.7 ± 8.69 | 4440 ± 679 | 66.7 ± 6.84 |  | 
7 | COc1ccc2c(c1)[C@]13CCN(CC4CC4)[C@H](C2)[C@]1(O)C[C@H](CCOCc1ccccc1)C(=O)C3 [Compound 48, (4bR,7S,8aS,9R)-7-(2-(benzyloxy)ethyl)-11-(cyclopropylmethyl)-8a-hydroxy-3-methoxy-8,8a,9,10-tetrahydro-5H-9,4b-(epiminoethano)phenanthren-6(7H)-one] | 65.3 ± 4.49 | 223 ± 32.5 | 225 ± 20.1 | 119 ± 4.91 | 463 ± 32.6 | 139 ± 3.21 | 362 ± 36.6 | 70.3 ± 6.94 | 38.6 ± 2.85 | 98 ± 2.65
8 | COc1ccc2c(c1)[C@]13CCN(CC4CC4)[C@H](C2)[C@@H]1C[C@@H](C(C)C)C(=O)C3 [Compound 72, (4bS,7S,8aR,9R)-11-(cyclopropylmethyl)-7-isopropyl-3-methoxy-8,8a,9,10-tetrahydro-5H-9,4b-(epiminoethano)phenanthren-6(7H)-one] | 82.9 ± 1.96 | 476 ± 118 | 303 ± 40.4 | 102 ± 2.52 | 212 ± 48.8 | 101 ± 5.55 | 1050 ± 193 | 69.3 ± 6.77 | 270 ± 48.2 | 60 ± 6
9 | O=C(O)C[C@H]1C[C@@]2(O)[C@H]3Cc4ccc(O)cc4[C@@]2(CCN3CC2CC2)CC1=O [Compound 9, 2-((4bR,7R,8aS,9R)-11-(cyclopropylmethyl)-3,8a-dihydroxy-6-oxo-6,7,8,8a,9,10-hexahydro-5H-9,4b-(epiminoethano)phenanthren-7-yl)acetic acid] | 0.97 ± 0.19 | 6.18 ± 0.76 |  |  | > 200000 | -1 | 17.3 ± 3.73 | 40.8 ± 1.93 |  | 
